{"source": "patent US12459951B2", "about": "“Compounds that interact with RAS superfamily proteins for treatment of cancers, inflammatory diseases, rasopathies, and fibrotic disease” (SHY Therapeutics, LLC, priority 2022, dated 2025)", "key": {"IL6": {"system": "IL6", "assay": "IL-6 Quantification Assay (ELISA), LPS-stimulated RAW 264.7", "format": "cell-based", "design": "inhibition: dose or concentration left out as unconfirmed", "conditions": "Mus musculus, RAW264.7; read-out: IL-6: % inh."}, "TNF-alpha": {"system": "TNF-alpha", "assay": "TNF-alpha Quantification Assay (ELISA), LPS-stimulated RAW 264.7", "format": "cell-based", "conditions": "Mus musculus, RAW264.7; at 10 μM; read-out: TNFα: % inh."}, "KRas G12D mutant": {"system": "KRas G12D mutant", "assay": "Ras GTP Binding Domain Inhibition Assay (Ras Superfamily Assay)", "conditions": "20 μM compound", "description": "(§1) Biological Example 3: Ras GTP Binding Domain Inhibition Assay\n(§2) The assays described in Example 3 are collectively referred to as the “Ras Superfamily Assay” throughout this application.\n(§3) A Ras Superfamily Activity Assay (as disclosed in International Application No. PCT/US2018/038613, filed Jun. 20, 2018, which is incorporated by reference in its entirety) was used as a specific assay to evaluate compounds against the following for the following Ras Superfamily proteins: KRas wild type, KRas Q61H mutant, KRas G12C mutant, KRas G12D mutant, Rac-1, and Rho-A.\n(§4) • 25 mM Tris-HCl, pH 7.4 • 27 mM KCl • 137 mM NaCl • 1 mM MgCl2 • 1 mM DTT Buffer-II: • 50 mM Tris-HCl, pH 7.0 • 1 mM MgCl2 • 1 mM DTT\n(§5) The small GTPases proteins: KRas wild type. KRas Q61H mutant, KRas G12C mutant, KRas G12D mutants, Rac-1, and Rho-A were expressed as His-tagged proteins. In addition, the Guanosine nucleotide Exchange Factor (GEF) Sos protein (residues 556-1049) was expressed as a His-tagged protein. In cells, the guanine nucleotide exchange factor Sos protein promotes activation of Ras proteins by stimulating an exchange of GDP for GTP. The inclusion of Sos to the Ras GTP binding domain inhibition assay may be considered as an alternative representation of physiological cellular conditions for evaluating the inhibitory activity of some of the tested small molecules.\n(§6) For the assay, all purified small GTPases proteins were diluted in Buffer-I or Buffer-II to a final concentration of 10-30 μg/mL. 200 μL of each diluted protein was added to a nickel-coated 96-well plate and incubated overnight at 4° C. Then the protein solution was discarded and 200 μL of Buffer-I or Buffer-II was added to each well in the presence of 1% DMSO. Compounds to be tested were added to the protein-coated wells at final concentration of 20 μM, and incubated for 3 hours at room temperature with and without 10-30 μg/mL of Sos added to the final hour of the incubation. When performing IC50 measurements a serial dilution of all tested concentrations was added. Then Cy3-GTP or Cy5-GTP was added to each well to a final concentration of 100 nM. The labeled GTP was incubated for 45 minutes at room temperature. Following GTP incubation, wells were washed 3× in Buffer-I or Buffer-II and 200 μL of Buffer-I or Buffer-II was added to each well. Following washes, the amount of bound labeled-GTP was measured using a SpectraMax M3 (Molecular Devices)."}, "KRas wild type": {"system": "KRas wild type", "assay": "Ras GTP Binding Domain Inhibition Assay (Ras Superfamily Assay)", "conditions": "20 μM compound", "description": "as §1, §2, §3, §4, §5, §6"}, "Rac-1": {"molecular_target": "T1, Rac-1 (Homo sapiens, UniProt P63000)", "T1 construct": "made in house", "assay": "Ras GTP Binding Domain Inhibition Assay (Ras Superfamily Assay)", "conditions": "read-out: Rac-1: % inh.", "description": "as §1, §2, §3, §4, §5, §6"}}, "data": [{"smiles": "COC(=O)c1c(-c2ccn(C)n2)cn2nc(-c3nccn3C)nc(N[C@H]3CC[C@H](OC)C3)c12", "note": "(racemic) [Compound 180, Methyl 4-(((1S,3S)-3-methoxycyclopentyl)amino)-2-(1-methyl-1H-imidazol-2-yl)-6-(1-methyl-1H-pyrazol-3-yl)pyrrolo[2,1-f][1,2,4]triazine-5-carboxylate]", "values": [{"measurement": "inhibition", "setting": "IL6", "result": "50 to 74", "unit": "%"}, {"measurement": "inhibition at 10 µM", "setting": "TNF-alpha", "result": "25 to 49", "unit": "%"}, {"measurement": "KRas G12D mutant + SOS: % inh.", "setting": "KRas G12D mutant; with SOS", "result": "A (A = 1-25% inhibition)"}, {"measurement": "KRas G12D mutant: % inh.", "setting": "KRas G12D mutant; without SOS", "result": "A (A = 1-25% inhibition)"}, {"measurement": "KRas wild type + SOS: % inh.", "setting": "KRas wild type; with SOS", "result": "A (A = 1-25% inhibition)"}, {"measurement": "KRas wild type: % inh.", "setting": "KRas wild type; without SOS", "result": "A (A = 1-25% inhibition)"}, {"measurement": "inhibition at 20 µM", "setting": "Rac-1", "result": "1 to 25", "unit": "%"}]}]}
